Reference: ChEMBL document CHEMBL4417631, “Oral peptide inhibitors of interleukin-23 receptor and their use to treat inflammatory bowel diseases” (2017)
Calls of active or inactive are those of the source. The rule behind the calls is not given here.

What was measured:
[1] = Inhibition of interleukin-23 binding to cynomolgus monkey interleukin-23 receptor incubated for 2 hrs by competitive binding ELISA; design: species or system Macaca fascicularis
Interleukin-23 receptor [2] = molecular target: T1, Interleukin-23 receptor (Homo sapiens, UniProt Q5VWK5); experiment: Inhibition of interleukin-23 binding to human interleukin-23 receptor incubated for 2 hrs by competitive binding ELISA
T1 sequence (Q5VWK5 whole entry): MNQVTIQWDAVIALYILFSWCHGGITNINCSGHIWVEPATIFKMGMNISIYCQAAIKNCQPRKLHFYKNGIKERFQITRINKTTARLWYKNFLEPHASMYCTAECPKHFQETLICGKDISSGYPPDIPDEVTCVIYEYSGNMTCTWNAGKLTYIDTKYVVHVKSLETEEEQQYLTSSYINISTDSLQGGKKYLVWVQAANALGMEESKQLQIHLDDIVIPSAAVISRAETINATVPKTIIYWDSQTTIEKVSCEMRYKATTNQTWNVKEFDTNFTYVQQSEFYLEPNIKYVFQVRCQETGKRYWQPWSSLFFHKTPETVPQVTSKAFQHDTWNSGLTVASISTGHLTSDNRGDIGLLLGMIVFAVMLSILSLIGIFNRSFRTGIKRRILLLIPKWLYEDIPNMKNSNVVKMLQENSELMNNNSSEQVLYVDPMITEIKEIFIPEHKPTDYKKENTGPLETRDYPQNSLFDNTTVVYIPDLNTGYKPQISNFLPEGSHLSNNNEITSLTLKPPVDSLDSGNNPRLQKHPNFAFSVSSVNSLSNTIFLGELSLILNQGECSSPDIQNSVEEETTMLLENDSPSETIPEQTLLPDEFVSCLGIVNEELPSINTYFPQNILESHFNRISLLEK

Rattus norvegicus [3] = experiment: Anti-colitis activity in Sprague-Dawley rat model of TNBS-induced colitis assessed as improvement in gross pathology scores at 20 mg/kg, po dosed 3 times per day for 8 days starting 24 hrs before TNBS injection; type: functional, organism-based
[4] = molecular target: T2, Interleukin-12 receptor subunit beta-1 (Homo sapiens, UniProt P42701); experiment: Binding affinity to human FC-tagged human recombinant interleukin-12 receptor beta1 up to […] by SPR assay
[5] = Binding affinity to human FC-tagged human recombinant interleukin-12 receptor beta1/human FC-tagged human interleukin-23 receptor by SPR assay
Rattus norvegicus [6] = experiment: Anti-colitis activity in Sprague-Dawley rat model of TNBS-induced colitis assessed as reduction in colon wall thickness at 160 mg/kg/day, po starting 24 hrs before TNBS injection; type: functional, organism-based
Rattus norvegicus [7] = experiment: Anti-colitis activity in Sprague-Dawley rat model of TNBS-induced colitis assessed as improvement in histological scores at 160 mg/kg/day, po starting 24 hrs before TNBS injection by H and E staining based histological assay; type: functional, organism-based
[8] = molecular target: T2, Interleukin-12 receptor subunit beta-1; experiment: Binding affinity to human recombinant interleukin-12 receptor beta1 by SPR assay
[9] = Ratio of IC50 for inhibition of interleukin-23 receptor in rat splenocytes assessed as reduction in IL23-stimulated IL-17A production incubated for 3 hrs by ELISA to plasma concentration in Sprague-Dawley rat model of TNBS-induced colitis
Rattus norvegicus [10] = experiment: Anti-colitis activity in Sprague-Dawley rat model of TNBS-induced colitis assessed as induction of healing at necrosis sites in colon at 20 mg/kg, po dosed 3 times per day for 8 days starting 24 hrs before TNBS injection by H and E staining based histological assay; type: functional, organism-based
Interleukin-23 receptor [11] = molecular target: T1, Interleukin-23 receptor; experiment: Inhibition of interleukin-23 receptor in human natural killer cells assessed as reduction in IL23/IL18-induced IFNgamma production incubated for 20 to 24 hrs by ELISA; type: cell-based
[12] = Inhibition of interleukin-23 binding to rat interleukin-23 receptor incubated for 2 hrs by competitive binding ELISA
Rattus norvegicus [13] = experiment: Anti-colitis activity in Sprague-Dawley rat model of TNBS-induced colitis assessed as reduction in mucosal necrosis at 160 mg/kg/day, po starting 24 hrs before TNBS injection; type: functional, organism-based
[14] = Half life in simulated intestinal fluid at 20 uM by LC-MS/MS analysis; type: ADME
Interleukin-23 receptor [15] = molecular target: T1, Interleukin-23 receptor; experiment: Binding affinity to human FC-tagged human interleukin-23 receptor assessed as dissociation rate constant by SPR assay
Rattus norvegicus [16] = experiment: Anti-colitis activity in Sprague-Dawley rat model of TNBS-induced colitis assessed as reduction in localized lesions in mucosa and sub-mucosal regions at 20 mg/kg, po dosed 3 times per day for 8 days starting 24 hrs before TNBS injection by H and E staining based histological assay; type: functional, organism-based
Homo sapiens = species: Homo sapiens; experiment: Binding affinity to human FC-tagged human recombinant interleukin-12 receptor beta1/human FC-tagged human interleukin-23 receptor assessed as association constant by SPR assay
[17] = Ratio of IC50 for inhibition of interleukin-23 binding to rat interleukin-23 receptor incubated for 2 hrs by competitive binding ELISA to plasma concentration in Sprague-Dawley rat model of TNBS-induced colitis
Interleukin-23 receptor [18] = molecular target: T1, Interleukin-23 receptor; experiment: Binding affinity to human recombinant interleukin-23 receptor by SPR assay
[19] = Inhibition of interleukin-6 binding to human interleukin-6 receptor incubated for 2 hrs by competitive binding ELISA
[20] = AUC in rat colon mucosa at 20 mg/kg, po; type: ADME, organism-based, Colonic mucosa; conditions: in vivo
[21] = Drug recovery in rat feces at 20 mg/kg, po; type: ADME, organism-based; conditions: read-out: Drug recovery
Rattus norvegicus [22] = experiment: Anti-colitis activity in Sprague-Dawley rat model of TNBS-induced colitis assessed as reduction in inflammation at 20 mg/kg, po dosed 3 times per day for 8 days starting 24 hrs before TNBS injection; type: functional, organism-based
[23] = Inhibition of interleukin-23 receptor in rat splenocytes assessed as reduction in IL23-stimulated IL-17A production incubated for 3 hrs by ELISA; type: cell-based
Rattus norvegicus [24] = experiment: Anti-colitis activity in Sprague-Dawley rat model of TNBS-induced colitis assessed as reduction in colon weight/colon length ratio at 20 mg/kg, po dosed 3 times per day for 8 days starting 24 hrs before TNBS injection; type: functional, organism-based
[25] = Half life in simulated gastric fluid at 20 uM by LC-MS/MS analysis; type: ADME
[26] = Half life in DTT at 50 uM up up to 120 mins by reverse phase HPLC and UV detection based assay; type: physicochemical
[27] = AUC in rat small intestinal mucosa at 20 mg/kg, po; type: ADME, organism-based, Mucosa of small intestine; conditions: in vivo
Interleukin-23 receptor [28] = molecular target: T1, Interleukin-23 receptor; experiment: Inhibition of interleukin-23 receptor in human DB cells assessed as reduction in IL-23-stimulated STAT3 phosphorylation incubated for 30 mins by HTRF assay; type: cell-based
[29] = Binding affinity to human FC-tagged human recombinant interleukin-12 receptor beta1/human FC-tagged human interleukin-23 receptor assessed as dissociation rate constant by SPR assay
Rattus norvegicus [30] = experiment: Anti-colitis activity in Sprague-Dawley rat model of TNBS-induced colitis assessed as reduction in inflammation at 160 mg/kg/day, po starting 24 hrs before TNBS injection; type: functional, organism-based
Interleukin-23 receptor [31] = molecular target: T1, Interleukin-23 receptor; experiment: Binding affinity to human FC-tagged human interleukin-23 receptor by SPR assay
PBMC = experiment: Inhibition of IL12-stimulated IFNgamma production in PHA-activated human PBMC by ELISA; type: functional, cell-based
[32] = Half life in human intestinal fluid at 20 uM by LC-MS/MS analysis; type: ADME
[33] = molecular target: T3, Interleukin-23 receptor (Homo sapiens) (UniProt Q5VWK5); experiment: Binding affinity to human FC-tagged human interleukin-23 receptor assessed as association constant by SPR assay
T3 sequence (whole entry): T1 sequence (Q5VWK5 whole entry)

[34] = AUC in rat plasma at 20 mg/kg, po; type: ADME, organism-based

Which results are given for `CC(=O)N[C@H]1CCSC[C@@H](C(=O)N[C@@H](Cc2ccc(OCCN)cc2)C(=O)N[C@@H](Cc2c[nH]c3ccccc23)C(=O)N[C@@](C)(CCCCN)C(=O)N[C@@H](CCC(=O)O)C(=O)N[C@@H](CC(N)=O)C(=O)NCC(N)=O)NC(=O)[C@H](CCC(N)=O)NC(=O)[C@H](Cc2c[nH]c3ccccc23)NC(=O)[C@H]([C@@H](C)O)NC(=O)[C@H](CCC(N)=O)NC1=O`?
IC50 [1]: 0.007 µM; IC50 (Interleukin-23 receptor [2]): 0.01 to 0.025 µM; Activity (Rattus norvegicus [3]): Active; Activity [4]: inactive; Kd [5]: 0.00256 µM; Activity (Rattus norvegicus [6]): Active; Activity (Rattus norvegicus [7]): Active; Kd [8]: Not Active; Ratio [9]: <2; Activity (Rattus norvegicus [10]): Active; IC50 (Interleukin-23 receptor [11]): 0.025 to 0.027 µM; IC50 [12]: 0.01 to 0.025 µM; Activity (Rattus norvegicus [13]): Active; half-life at 20 µM [14]: 6 to 24 h; Kd (Interleukin-23 receptor [15]): 0.033 s⁻¹; Activity (Rattus norvegicus [16]): Active; Ka (Homo sapiens): 1.59 ×10⁷ /M/s; Ratio [17]: <2; Kd (Interleukin-23 receptor [18]): 0.0024 µM; IC50 [19]: > 100 µM; AUC [20]: 77 µg·h/g; dose excreted [21]: 40%; Activity (Rattus norvegicus [22]): Active; IC50 [23]: 0.13 µM; Activity (Rattus norvegicus [24]): Active; half-life at 20 µM [25]: 2 to 24 h; half-life at 50 µM [26]: > 2 h; AUC [27]: 355 µg·h/g; IC50 (Interleukin-23 receptor [28]): < 0.01 µM; Kd [29]: 0.041 s⁻¹; Activity (Rattus norvegicus [30]): Active; Kd (Interleukin-23 receptor [31]): 0.00242 µM; IC50 (PBMC): > 100 µM; half-life at 20 µM [32]: > 24 h; Ka [33]: 1.37 ×10⁷ /M/s; AUC [34]: 0.3 µg·h/mL
